Laboratory results: patent US20260250320A1, “LIPIDATED PEPTIDE INHIBITORS OF INTERLEUKIN-23 RECEPTOR” (Janssen Pharmaceutica NV, priority 2023, published 2026)
*1 amine or outer side, *2 acyl side, *3 side chain or, on linkers, in order; H or OH if unused. Where a SMILES comes first, the peptide text is derived from it. Bridges are numbered along the chain shown (N, C = ends). Roman numbers before positions name the chains, in order. Side-chain parts run from the residue outwards. [ ]: non-standard residue; d: D form. The star is where a group is joined. ξ: configuration not given here. X35 = NCCOc1ccc(C[C@H](N[*:1])C(=O)CC(Cc2ccc3ccccc3c2)C(=O)[*:2])cc1; Trp(7-Me) = Cc1cccc2c(C[C@H](N)C(=O)O)c[nH]c12; Hexanoyl(6-NMe3+) = C[N+](C)(C)CCCCCC(=O)*; C18 diacid = O=C(O)CCCCCCCCCCCCCCCCC(=O)*; γGlu = O=C(O)[C@H](CCC(=O)[*:2])N[*:1]; 2Nal = N[C@@H](Cc1ccc2ccccc2c1)C(=O)O; AEF = NCCOc1ccc(C[C@H](N)C(=O)O)cc1; X2 = C[N+](C)(C)C[C@@H](CC(=O)O)N*; 3Pal = N[C@@H](Cc1cccnc1)C(=O)O; Pen = CC(C)(S)[C@H](N)C(=O)O; Suc = O=C(CCC(=O)[*:2])[*:1]; Thp = NC1(C(=O)O)CCOCC1; X1 = C[N+](C)(C)CCCCC*; ξN = NC(=O)CC(N)C(=O)O; AEEA = NCCOCCOCC(=O)O; Sar = CNCC(=O)O

Columns and labels:
[1] = tested on: IL-23-stimulated phosphorylated STAT3 in peripheral blood mononuclear cells (PBMCs); experiment: PBMC pSTAT3 Assay; format: cell-based; conditions: PBMCs from healthy donors; 30 min preincubation with peptide; IL-23 5 ng/mL for 30 min; phospho-STAT3 by MSD
In short: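 Healthy-donor PBMCs expanded 4 days on anti-CD3 with 100 ng/mL IL-1β, starved ~4 h in RPMI-0.1% BSA, preincubated 30 min with peptide, then stimulated 30 min at 37 °C with 5 ng/mL IL-23. Lysate pSTAT3 measured by MSD phospho-STAT panel; IC50 derived.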

IL-23R = target: T1, IL-23R (Homo sapiens, UniProt Q5VWK5); experiment: IL23R Reporter Assay; format: cell-based; conditions: HEK293 cells containing IL-23R, IL-12Rβ1 and STAT-inducible firefly luciferase reporter; 10 ng/mL IL-23 (EC90); 5 h
T1 construct: HEK293 cells containing IL-23R, IL-12Rβ1 and a firefly luciferase reporter gene driven by a STAT-inducible promoter (Promega); host or cells: HEK293
T1 sequence (Q5VWK5 24-629): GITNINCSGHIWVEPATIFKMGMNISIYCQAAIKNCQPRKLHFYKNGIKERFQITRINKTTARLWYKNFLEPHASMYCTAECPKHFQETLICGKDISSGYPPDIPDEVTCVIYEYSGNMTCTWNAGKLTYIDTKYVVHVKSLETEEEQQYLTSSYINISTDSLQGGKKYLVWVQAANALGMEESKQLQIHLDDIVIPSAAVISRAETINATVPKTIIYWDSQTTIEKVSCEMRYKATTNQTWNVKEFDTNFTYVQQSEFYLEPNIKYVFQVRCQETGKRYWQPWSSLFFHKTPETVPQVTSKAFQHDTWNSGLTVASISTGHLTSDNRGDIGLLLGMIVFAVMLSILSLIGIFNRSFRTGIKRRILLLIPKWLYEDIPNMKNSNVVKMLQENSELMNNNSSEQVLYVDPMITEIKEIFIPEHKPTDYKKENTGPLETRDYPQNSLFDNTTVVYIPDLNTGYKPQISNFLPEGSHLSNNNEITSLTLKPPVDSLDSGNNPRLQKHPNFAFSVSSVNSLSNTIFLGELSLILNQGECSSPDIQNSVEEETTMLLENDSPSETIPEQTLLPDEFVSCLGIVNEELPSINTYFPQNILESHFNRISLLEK
In short: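 HEK293 cells carrying IL-23R, IL-12Rβ1 and a STAT-driven firefly luciferase reporter (4000 cells/well) received compound, then 10 ng/mL IL-23 solution (EC90), and were incubated for 5 h at 37° C. BioGlo luminescence was normalised to IL-23 alone (0%) and 30 μM control inhibitor (100%). IC50 came from a 4-parameter Hill fit.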

Row | SMILES | IC50 [1] [nM] | IC50 (IL-23R) [nM]
1 | CC(=O)NCCCC[C@@H]1NC(=O)[C@H](Cc2c[nH]c3c(C)cccc23)NC(=O)[C@H]([C@@H](C)O)NC(=O)[C@H](CCCCNC(=O)COCCOCCNC(=O)COCCOCCNC(=O)CC[C@H](NC(=O)CCCCCCCCCCCCCCCCC(=O)O)C(=O)O)NC(=O)[C@@H](NC(=O)[C@@H](CCCNC(=N)N)NC(=O)CCCCC[N+](C)(C)C)C(C)(C)SSC(C)(C)[C@@H](C(=O)N[C@@H](Cc2ccc(OCCN)cc2)C(=O)N[C@@H](Cc2ccc3ccccc3c2)C(=O)NC2(C(=O)N[C@@H](CCC(=O)O)C(=O)N[C@@H](CC(N)=O)C(=O)N[C@@H](Cc3cccnc3)C(=O)N(C)CC(N)=O)CCOCC2)NC1=O [compound 73, 5cpaCO-r-Pen(3)-K(PEG2PEG2gEC18OH)-T-7MeW-K(Ac)-Pen(3)-AEF-2Nal-THP-E-N-3Pya-Sar-CONH2] ({Hexanoyl(6-NMe3+)}-[dR][Pen]K([AEEA-AEEA-γGlu-C18 diacid])T[Trp(7-Me)]K(Ac)[Pen][AEF][2Nal][Thp]EN[3Pal][Sar]-NH2; disulfide 2-7) | < 0.5 | 50 to 500
2 | CC(=O)NCCCC[C@@H]1NC(=O)[C@H](Cc2c[nH]c3c(C)cccc23)NC(=O)[C@H]([C@@H](C)O)NC(=O)[C@H](CC(N)=O)NC(=O)[C@@H](NC(=O)[C@H](CCCCNC(=O)COCCOCCNC(=O)COCCOCCNC(=O)CC[C@H](NC(=O)CCCCCCCCCCCCCCCCC(=O)O)C(=O)O)NC(C)=O)C(C)(C)SSC(C)(C)[C@@H](C(=O)N[C@@H](Cc2ccc(OCCCCC[N+](C)(C)C)cc2)C(=O)N[C@@H](Cc2ccc3ccccc3c2)C(=O)NC2(C(=O)N[C@@H](CCCCNC(C)=O)C(=O)NC(CC(N)=O)C(=O)N[C@@H](Cc3cccnc3)C(=O)N(C)CC(N)=O)CCOCC2)NC1=O (stereo partly drawn) [compound 62, MeCO-K(PEG2PEG2gEC18OH)-Pen(3)-N-T-7MeW-K(Ac)-Pen(3)-TMAPF-2Nal-THP-K(Ac)-3-Pya-Sar-CONH2] (Ac-K([AEEA-AEEA-γGlu-C18 diacid])[Pen]NT[Trp(7-Me)]K(Ac)[Pen]Y(X1)[2Nal][Thp]K(Ac)[ξN][3Pal][Sar]-NH2; disulfide 2-7) | < 0.5 | < 50
3 | CC(=O)NCCCC[C@@H]1NC(=O)[C@H](Cc2c[nH]c3c(C)cccc23)NC(=O)[C@H]([C@@H](C)O)NC(=O)[C@H](CC(N)=O)NC(=O)[C@@H](NC(C)=O)C(C)(C)SSC(C)(C)[C@@H](C(=O)N[C@@H](Cc2ccc(OCCN)cc2)C(=O)CC(Cc2ccc3ccccc3c2)C(=O)NC2(C(=O)N[C@@H](CCC(=O)O)C(=O)N[C@@H](CC(N)=O)C(=O)N[C@@H](Cc3cccnc3)C(=O)N(C)CC(=O)N[C@@H](CCCCNC(=O)COCCOCCNC(=O)COCCOCCNC(=O)CC[C@H](NC(=O)CCCCCCCCCCCCCCCCC(=O)O)C(=O)O)C(=O)N(C)C)CCOCC2)NC1=O (stereo partly drawn) [compound 149, MeCO-Pen(3)-N-T-7MeW-K(Ac)-Pen(3)-AEF-2Nal-THP-E-N-3Pya-Sar-K(PEG2PEG2gEC18OH)-CON(Me)2] (I: Ac-[Pen]NT[Trp(7-Me)]K(Ac)[Pen] / II: [Thp]EN[3Pal][Sar]K([AEEA-AEEA-γGlu-C18 diacid])-NMe2; disulfide I:1-I:6; linker I:C-II:N via X35) | ≥ 5 | ≥ 500
4 | CC(=O)NCCCC[C@@H]1NC(=O)[C@H](Cc2c[nH]c3c(C)cccc23)NC(=O)[C@H]([C@@H](C)O)NC(=O)[C@H](CC(N)=O)NC(=O)[C@@H](NC(C)=O)C(C)(C)SSC(C)(C)[C@@H](C(=O)N[C@@H](Cc2ccc(OCCNC(=O)COCCOCCNC(=O)COCCOCCNC(=O)CC[C@H](NC(=O)CCCCCCCCCCCCCCCCC(=O)O)C(=O)O)cc2)C(=O)N[C@@H](Cc2ccc3ccccc3c2)C(=O)NC2(C(=O)N[C@@H](CCCCNC(=O)CCC(=O)N[C@H](CC(=O)O)C[N+](C)(C)C)C(=O)N[C@@H](CC(N)=O)C(=O)N[C@@H](Cc3cccnc3)C(=O)N(C)CC(N)=O)CCOCC2)NC1=O [compound 8, MeCO-Pen(3)-N-T-7MeW-K(Ac)-Pen(3)-AEF(PEG2PEG2gEC18OH)-2Nal-THP-K(d)-N-3Pya-Sar-CONH2] (Ac-[Pen]NT[Trp(7-Me)]K(Ac)[Pen][AEF]([AEEA-AEEA-γGlu-C18 diacid])[2Nal][Thp]K([Suc-X2])N[3Pal][Sar]-NH2; disulfide 1-6) | < 0.5 | < 50
5 | C=CCOC(=O)CN1CCOc2ccc(cc2)C[C@H](NC(=O)[C@H]2NC(=O)[C@H](CCCCNC(C)=O)NC(=O)[C@H](Cc3c[nH]c4c(C)cccc34)NC(=O)[C@H]([C@@H](C)O)NC(=O)[C@H](CCCCNC(=O)COCCOCCNC(=O)COCCOCCNC(=O)CC[C@H](NC(=O)CCCCCCCCCCCCCCCCCC(=O)O)C(=O)O)NC(=O)[C@@H](NC(=O)CCOCCOCCNC(=O)COCCOCCNC(=O)COCCOCCNC(=O)CC[C@H](NC(=O)CCCCCCCCCCCCCCCCC(=O)O)C(=O)O)C(C)(C)SSC2(C)C)C(=O)N[C@@H](Cc2ccc3ccccc3c2)C(=O)NC2(CCOCC2)C(=O)N[C@@H]1C(=O)N[C@@H](CC(N)=O)C(=O)N[C@@H](Cc1cccnc1)C(=O)N(C)CC(N)=O [compound 24, AEEP(PEG2PEG2gEC18OH)-Pen(3)-K(PEG2PEG2gEC18OH)-T-7MeW-K(Ac)-Pen(3)-AEF-2Nal-THP-E(OAll)-N-3Pya-Sar-CONH2] | 0.5 to 5 | 50 to 500
6 | CC(=O)NCCCC[C@@H]1NC(=O)[C@H](Cc2c[nH]c3c(C)cccc23)NC(=O)[C@H]([C@@H](C)O)NC(=O)[C@H](CCCCNC(=O)COCCOCCNC(=O)COCCOCCNC(=O)CC[C@H](NC(=O)CCCCCCCCCCCCCCCCC(=O)O)C(=O)O)NC(=O)[C@@H](NC(=O)[C@@H](CCCNC(=N)N)NC(C)=O)C(C)(C)SSC(C)(C)[C@@H](C(=O)N[C@@H](Cc2ccc(OCCCCC[N+](C)(C)C)cc2)C(=O)N[C@@H](Cc2ccc3ccccc3c2)C(=O)NC2(C(=O)N[C@@H](CCC(=O)O)C(=O)N[C@@H](CC(N)=O)C(=O)N[C@@H](Cc3cccnc3)C(=O)N(C)CC(N)=O)CCOCC2)NC1=O [compound 75, MeCO-r-Pen(3)-K(PEG2PEG2gEC18OH)-T-7MeW-K(Ac)-Pen(3)-TMAPF-2Nal-THP-E-N-3Pya-Sar-CONH2] (Ac-[dR][Pen]K([AEEA-AEEA-γGlu-C18 diacid])T[Trp(7-Me)]K(Ac)[Pen]Y(X1)[2Nal][Thp]EN[3Pal][Sar]-NH2; disulfide 2-7) | < 0.5 | < 50
7 | CC(=O)NCCCC[C@@H]1NC(=O)[C@H](Cc2c[nH]c3c(C)cccc23)NC(=O)[C@H]([C@@H](C)O)NC(=O)[C@H](CCCCNC(=O)COCCOCCNC(=O)COCCOCCNC(=O)CC[C@H](NC(=O)CCCCCCCCCCCCCCCCC(=O)O)C(=O)O)NC(=O)[C@@H](NC(=O)[C@@H](CCCNC(=N)N)NC(=O)CCC(=O)N[C@H](CC(=O)O)C[N+](C)(C)C)C(C)(C)SSC(C)(C)[C@@H](C(=O)N[C@@H](Cc2ccc(OCCN)cc2)C(=O)N[C@@H](Cc2ccc3ccccc3c2)C(=O)NC2(C(=O)N[C@@H](CCC(=O)O)C(=O)N[C@@H](CC(N)=O)C(=O)N[C@@H](Cc3cccnc3)C(=O)N(C)CC(N)=O)CCOCC2)NC1=O [compound 18, succiniccarn-r-Pen(3)-K(PEG2PEG2gEC18OH)-T-7MeW-K(Ac)-Pen(3)-AEF-2Nal-THP-E-N-3Pya-Sar-CONH2] ({X2-Suc}-[dR][Pen]K([AEEA-AEEA-γGlu-C18 diacid])T[Trp(7-Me)]K(Ac)[Pen][AEF][2Nal][Thp]EN[3Pal][Sar]-NH2; disulfide 2-7) | < 0.5 | 50 to 500
8 | CC(=O)N[C@H](CCCNC(=N)N)C(=O)N[C@@H]1C(=O)N[C@@H](CC(N)=O)C(=O)N[C@@H]([C@@H](C)O)C(=O)N[C@@H](Cc2c[nH]c3c(C)cccc23)C(=O)N[C@@H](CCCCNC(=O)CCC(=O)N[C@H](CC(=O)O)C[N+](C)(C)C)C(=O)N[C@H](C(=O)N[C@@H](Cc2ccc(OCCNC(=O)COCCOCCNC(=O)COCCOCCNC(=O)CC[C@H](NC(=O)CCCCCCCCCCCCCCCCC(=O)O)C(=O)O)cc2)C(=O)N[C@@H](Cc2ccc3ccccc3c2)C(=O)NC2(C(=O)N[C@@H](CCC(=O)O)C(=O)N[C@@H](CC(N)=O)C(=O)N[C@@H](Cc3cccnc3)C(=O)N(C)CC(N)=O)CCOCC2)C(C)(C)SSC1(C)C [compound 13, MeCO-r-Pen(3)-N-T-7MeW-K(d)-Pen(3)-AEF(PEG2gEC18OH)-2Nal-THP-E-N-3Pya-Sar-CONH2] (Ac-[dR][Pen]NT[Trp(7-Me)]K([Suc-X2])[Pen][AEF]([AEEA-AEEA-γGlu-C18 diacid])[2Nal][Thp]EN[3Pal][Sar]-NH2; disulfide 2-7) | 0.5 to 5 | 50 to 500
